Here are results for 18 compounds from ChEMBL document CHEMBL1147540, “Design, synthesis, and SAR of 2-dialkylamino-4-arylpyrimidines as potent and selective corticotropin-releasing factor(1) (CRF(1)) receptor antagonists” (Bioorg Med Chem Lett, 2004).

Assay [1] has as its target T1, Corticotropin-releasing factor receptor 1 (Homo sapiens, UniProt P34998).
T1 sequence (P34998 whole entry): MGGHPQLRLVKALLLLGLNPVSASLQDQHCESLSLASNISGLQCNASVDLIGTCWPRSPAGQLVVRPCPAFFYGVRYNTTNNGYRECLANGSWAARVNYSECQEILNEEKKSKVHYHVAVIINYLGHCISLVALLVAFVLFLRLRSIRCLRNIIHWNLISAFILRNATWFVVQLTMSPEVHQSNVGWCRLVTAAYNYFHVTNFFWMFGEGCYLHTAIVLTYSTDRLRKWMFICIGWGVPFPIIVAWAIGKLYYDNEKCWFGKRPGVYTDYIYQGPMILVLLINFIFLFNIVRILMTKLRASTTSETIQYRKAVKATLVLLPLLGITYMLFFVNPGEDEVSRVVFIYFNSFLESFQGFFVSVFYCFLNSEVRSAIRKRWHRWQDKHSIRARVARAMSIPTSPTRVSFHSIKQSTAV
Briefly: biochemical. It counts as cell-based, CHO.

Assay [2] addresses T2, Corticotropin-releasing factor receptor 2 (Homo sapiens, UniProt Q13324).
T2 sequence (Q13324 whole entry): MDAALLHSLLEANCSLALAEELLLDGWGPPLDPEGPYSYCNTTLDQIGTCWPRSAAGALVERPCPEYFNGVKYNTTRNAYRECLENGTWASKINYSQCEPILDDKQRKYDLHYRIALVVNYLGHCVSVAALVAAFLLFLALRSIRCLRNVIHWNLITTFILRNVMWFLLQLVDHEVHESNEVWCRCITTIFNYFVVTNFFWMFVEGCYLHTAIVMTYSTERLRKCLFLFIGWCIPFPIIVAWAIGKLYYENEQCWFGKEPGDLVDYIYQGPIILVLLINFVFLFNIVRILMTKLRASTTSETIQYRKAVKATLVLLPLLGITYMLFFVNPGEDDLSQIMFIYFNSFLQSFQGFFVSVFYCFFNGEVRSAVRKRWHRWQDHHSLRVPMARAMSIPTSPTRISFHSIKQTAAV
Briefly: Binding affinity towards human Corticotropin releasing factor receptor 2 by the displacement of [125I]CRF from CHO cells; IA means Inactive. It counts as cell-based. A general note: In a radioligand displacement assay an active substance lowers the binding of a labelled ligand.

Assay [3] concerns the target T1, Corticotropin-releasing factor receptor 1. Briefly: Effective dose against CRF stimulated cAMP production in CHO cells expressing human Corticotropin releasing factor receptor 1. The assay is classed as functional, cell-based. (In general: Cyclic AMP is a second messenger, typically raised through Gs and lowered through Gi signalling.)
Assay [4] shares this target. Briefly: Effective dose against human Corticotropin releasing factor receptor 1 stimulated ACTH release from primary rat anterior pituitary cell cultures. The assay is classed as functional, cell-based, Pituitary gland cell.
Assay [5] has the same target. Briefly: Binding affinity towards human Corticotropin releasing factor receptor 1 by the displacement of [125I]CRF from CHO cells; IA means Inactive. The assay is classed as cell-based.

By Ki is commonly meant a measure of affinity in units of concentration, obtained from inhibition or displacement. Read a high Ki as weaker binding. With `CCCN(c1ncc(C)c(-c2ccc(Br)cc2C)n1)C(C1CC1)C1CC1`, the Ki in assay [1] came to 63 nM. Compound `CCCN(c1ncc(C)c(-c2ccc(Br)cc2)n1)C(C1CC1)C1CC1` came in with a Ki in assay [1] of 49 nM. With `C=CCN(c1nccc(-c2c(OC)cc(OC)cc2OC)n1)C(C1CC1)C1CC1`, the affinity in assay [1] corresponds to a Ki of 100 nM. What is called EC50 is the concentration at which the effect is half-maximal. Turning to `CCCN(c1nccc(-c2c(Cl)cc(OC)cc2OC)n1)C(C1CC1)C1CC1`, the Ki result was “Not Active” in assay [2] and 11 nM in assay [1]. Also, the EC50 in assay [3] was 1600 nM; in assay [4] it was 1100 nM. Consider `CCCN(c1nccc(-c2ccc(OC)cc2OC)n1)C(C1CC1)C1CC1`, for which affinity in assay [1] was put at a Ki of 460 nM. Regarding `COc1cc(OC)c(-c2ccnc(N)n2)c(OC)c1`, in assay [5], the Ki entry is “Not Active”. `CCCN(c1nccc(-c2c(OC)cc(OC)cc2OC)n1)C1(c2cccs2)CC1` returned a Ki in assay [1] of 250 nM.

`CCCN(c1ncc(C(=O)OC)c(-c2ccc(OC)cc2OC)n1)C(C1CC1)C1CC1`: in assay [5], the Ki result is on record as “Not Active”. With `CCCN(c1nc(C)c(C)c(-c2ccc(Br)cc2)n1)C(C1CC1)C1CC1`, the Ki result in assay [5] is given as “Not Active”. Turning to `CCCN(c1nccc(-c2c(F)cc(OC)cc2OC)n1)C(C1CC1)C1CC1`, in assay [1], the Ki is 63 nM. This counts as double-digit nanomolar.

As for `COc1cc(OC)c(-c2ccnc(NC(C3CC3)C3CC3)n2)c(OC)c1`, in assay [5], the Ki result is listed as “Not Active”. In turn, `CCCN(c1ncc(CC)c(-c2ccc(OC)cc2OC)n1)C(C1CC1)C1CC1` gave a Ki in assay [1] of 860 nM. Compound `CCCN(c1nccc(-c2c(OC)cc(OC)cc2OC)n1)C1(c2ccoc2)CC1` displayed a Ki in assay [1] of 700 nM. Regarding `CCCN(c1nccc(-c2c(OC)cc(OC)cc2OC)n1)c1cccc2ccccc12`, in assay [5], the Ki entry is on record as “Not Active”. In assay [1], `CCCN(c1nccc(-c2c(OC)cc(OC)cc2OC)n1)[C@@H](c1ccccc1)C1CC1` had a Ki of 240 nM.

For the compound `CCCN(c1ncc(C)c(-c2ccc(OC)cc2OC)n1)C(C1CC1)C1CC1`, the Ki in assay [1] came to 19 nM.

In the case of `CCCN(c1nccc(-c2c(OC)cc(OC)cc2OC)n1)C(C1CC1)C1CC1`, the figures for the Ki entry in assay [2] and in assay [1] were “Not Active” and 15 nM, respectively. Besides, the EC50 in assay [3] was 990 nM; in assay [4] it was 970 nM. `CCCN(c1ncc(C)c(-c2c(OC)cc(OC)cc2OC)n1)C(C1CC1)C1CC1` returned a Ki in assay [1] of 15 nM.
